Assay results: patent US11786466B2, “Topical formulations for treating dermatological disorders including male pattern baldness” (XYON HEALTH INC., priority 2017, dated 2023)

Experiments:
[1] = test system: 5-α-reductase; settings: cited from earlier work
[2] = In vitro skin permeation, modified Franz-type diffusion cell; assay type: in vitro ADME; settings: human epidermis, receiver compartment, n = 5
Experimental: An original Franz-type diffusion cell system was modified to accommodate widened vertical columns and removal of the bowl shape. The diffusion area was 0.636 cm^2 with a receiver capacity of approximately 3.0 mL. The receiver volume for each cell was individually calibrated.
Human epidermis samples were prepared according to standard protocols. […] The samples were used as a membrane between the two chambers in the Franz cells. After about 6-8 hours, fat cells were carefully removed from the full thickness skin. The skin sections were cut into 2.5×2.5 cm squares, sealed in aluminum foil and frozen at −20° C. Prior to preparation, the samples were thawed to room temperature, immersed in 60° C. water, and the epidermis was gently separated from the remaining tissue with forceps and allowed to dry.
Before being mounted on the Franz cell, each epidermal sheet was visually inspected to avoid any possible defects. Additionally, the electrical resistance of isolated epidermis was measured to ensure the integrity of the barrier membrane. Epidermis samples with a resistance above 18 kΩ/cm^3 were used for experiments.
The upper and lower parts of the Franz cell were sealed with paraffin film and fastened together by a clamp. […]
Dutasteride concentration was determined using LC/MS-MS according to the following parameters: […]

[3] = test system: dihydrotestosterone (DHT); settings: cited from earlier work
[4] = after sustained oral administration

| Structure (SMILES) | Inhibition of the three 5-α-reductase isoforms [1] | Permeated Amount After 24 hours (dutasteride) [2] | Suppression of DHT production [3, 4] | Inhibition of Type I 5-α-reductase [1] | Inhibition of Type II and Type III 5-α-reductase [1] | Reduction of serum DHT levels [3, 4] | Typical reduction in DHT serum concentration ([3]; oral finasteride therapy, comparison value) |
| --- | --- | --- | --- | --- | --- | --- | --- |
| C[C@]12C=CC(=O)N[C@@H]1CC[C@@H]1[C@@H]2CC[C@]2(C)[C@@H](C(=O)Nc3cc(C(F)(F)F)ccc3C(F)(F)F)CC[C@@H]12 [Dutasteride] | inhibits all three 5-α-reductase isoforms | never detected | up to 99% | – | – | – | – |
| CC(C)(C)NC(=O)[C@H]1CC[C@H]2[C@@H]3CC[C@H]4NC(=O)C=C[C@]4(C)[C@H]3CC[C@]12C [Finasteride] | – | – | – | does not inhibit | selectively inhibits | 65-70% | 60-70% |
